In patent publication US7220575B2, “Melanoma differentiation associated gene-5 and promoter and uses thereof” (priority 2000, dated 2007):
“Also recorded” adds a separate entry of the source.

Experiments:
mda-5 expression [1] = assay: Northern blot analysis of mda-5 expression in HO-1 human melanoma cells; format: cell-based; settings: HO-1 cells; for mda-5 expression (steady-state mda-5 message level): treated 24 hr, Northern blot
Method: (§1) FIGS. 2A–2B. Northern blot analysis of mda-5 expression by various compounds inducing differentiation in HO-1 human melanoma cells. RNA samples were extracted from cells treated as indicated for 24 hr. FIG. 2A. HO-1 human melanoma cells. FIG. 2B. Early passage human skin fibroblast cells. Northern hybridization was performed as in Materials and Methods.
(§2) FIGS. 4A–4B. Northern blot analysis of mda-5 expression by ligands for various membrane receptors. RNA samples were extracted from cells treated as indicated for 24 hr. FIG. 4A. HO-1 human melanoma cells. FIG. 4B. Early passage human skin fibroblast cells. Northern hybridization was performed as in Materials and Methods.
FIG. 5. Northern blot analysis and time course of mda-5 expression. RNA samples were extracted from HO-1 cells treated with the indicated reagents and harvested at the indicated time after treatment. Northern blotting was performed as in Materials and Methods.
(§3) FIGS. 7A–7C. […] A. Northern blot analysis of mda-5. […] Cells were harvested at the indicated time after actinomycin D treatment. Northern hybridization was performed as in Materials and Methods. FIG. 7B. Nuclear run-on assays for determining mda-5 transcription rates. Nuclei were prepared from HO-1 melanoma cells treated with the indicated reagent(s) for 4 hr. Blots were prepared and hybridized as described in Materials and Methods. […] FIG. 7C. Northern blot analysis of mda-5 expression after blocking protein synthesis by cycloheximide (CHX). RNA samples were extracted from HO-1 melanoma cells pretreated with 50 μg/ml cycloheximide for 30 min and treated with the indicated reagents for 8 hr. Abbreviations and concentrations of indicated reagents are as in FIG. 4.
(§4) Cell Culture and Treatment Protocol: HO-1 human melanoma cells, early passage human skin fibroblast (purchased from ATCC) and 293T cells were grown in Dulbecco's modified Eagle's medium supplemented with 10% fetal bovine serum at 37° C. in a 5% CO2/95% air humidified incubator. Prior to treatment, cells were refed with fresh medium and exposed to the indicated compound(s) at the concentrations specified in the figure legends.
(§5) Northern Blot Analyses and Nuclear Run-On Assays: Total cellular RNA samples were prepared by guanidium isothiocyanate/phenol extraction followed by isopropanol precipitation. Ten 10 μg of total RNA were resolved in 1% agarose gels with formaldehyde and were transferred to Nylon membranes. EcoRI fragment of mda-5 cDNA (2.5 kb) was labeled with 32P using a multiprime labeling kit (Boehringer Mannheim) and used to probe the transferred membrane. Nuclear run-on assays were performed as previously described ((17) Su et al., 1993, 1999). Probes used for nuclear run-on assays were prepared by RT-PCR and included the mda-5 5′, 9–837 bp; mda-5 3′, 2531–3365 bp; and GAPDH fragment.

mda-5 transcription = assay: Nuclear run-on assays for mda-5 transcription rates in HO-1 melanoma cells; format: cell-based, human; settings: HO-1 cells treated 4 hr
Method: as §3
as §5, with “Probes used for nuclear run-on assays were prepared by RT-PCR and included the mda-5 5′, 9–837 bp; mda-5 3′, 2531–3365 bp; and GAPDH fragment.” left out

mda-5 expression [2] = assay: Northern blot analysis of mda-5 expression in early passage human skin fibroblast cells; format: cell-based
Method: as §1, §2, §4, §5

mda-5 promoter = mda-5 promoter luciferase reporter in HO-1 cells (transient and stable clones); format: cell-based, human
Method: FIG. 11: Screening of stable human HO-1 melanoma clones for promoter activity of stably integrated mda-5 reporter construct. Transfected HO-1 cells were selected by Puromycin drug selection and individual colonies analyzed for induction of luciferase activity in the presence of IFN-β. Values are expressed as fold change against uninduced values of luciferase activity.
FIG. 12: Induction kinetics of mda-5 promoter activity. Stable clones #20 and #40 were treated with IFN-β and samples were harvested and analyzed for luciferase activity at the times indicated.
FIG. 13: Responsiveness of the mda-5 promoter to IFN-β levels: Stable clones #20 and #40 were treated with IFN-β and samples were harvested and analyzed for luciferase activity 48h after initiation of treatment. The extent of activity was normalized based on equivalent protein content and performed in duplicate for each clone.
FIGS. 14A–14B: Responsiveness of the mda-5 promoter to various inducers: FIG. 14A. HO-1 cells transiently transfected with the mda-5 reporter and treated for 48 h with equivalent units of IFNs α, β and γ and TNF-α and poly IC:IC. The luciferase activity was expressed as fold increase over untreated control cells. FIG. 14B. Clone #40 was treated with equivalent units of the indicated IFNs for 48 h and luciferase activity expressed as fold activation over untreated cells determined. […]

Compound	mda-5 expression (steady-state mda-5 message level) (mda-5 expression [1])	mda-5 expression (mda-5 expression [2])	other results
C[C@@H]1C[C@@H]([C@H](O)CC2CC(=O)NC(=O)C2)C(=O)[C@@H](C)C1 [Cycloheximide, cycloheximide]	–	–	effect of cycloheximide pre-treatment on mda-5 steady-state mRNA levels induced by IFNs, TNF and poly IC (mda-5 expression [1]; 50 μg/ml cycloheximide 30 min, then inducers 8 hr): does not inhibit
C=C(C)[C@@]12O[C@@]3(c4ccccc4)O[C@@H]1[C@@H]1[C@@H]4O[C@]4(CO)[C@@H](O)[C@]4(O)C(=O)C(C)=C[C@H]4[C@@]1(O3)[C@H](C)[C@H]2OC(=O)/C=C/C=C/c1ccccc1 [MEZ, mezerein]	does not induce mda-5 expression	–	augmentation of mda-5 expression by MEZ in combination with IFN-β (mda-5 expression [1]; 24 hr): approximately 3 fold; augmentation of mda-5 expression by MEZ in combination with IFN-γ (mda-5 expression [1]; 24 hr): ~5 fold; time at which mda-5 message level begins increasing / induction first apparent (mda-5 expression [1]; time course): 48 h; mda-5 transcription (nuclear run-on) (mda-5 transcription): negligible levels of transcription
CCCCCCCCCCCCCC(=O)O[C@@H]1[C@@H](C)[C@@]2(O)[C@@H](C=C(CO)C[C@]3(O)C(=O)C(C)=C[C@@H]23)[C@@H]2C(C)(C)[C@]12OC(C)=O [TPA, 12-O-tetradecanoylphorbol-13-acetate]	fail to significantly induce mda-5 expression	–	–
CC1=C(/C=C/C(C)=C/C=C/C(C)=C/C(=O)O)C(C)(C)CCC1 [all trans retinoic acid, all-trans-retinoic acid]	fail to significantly induce mda-5 expression	–	–
Nc1ncnc2c1ncn2[C@@H]1O[C@@H]2COP(=O)(O)O[C@H]2[C@H]1O [cyclic-AMP, 3′–5′ cyclic adenosine monophosphate]	fail to significantly induce mda-5 expression	–	–
C[S+](C)[O-] [dimethyl sulfoxide]	fail to significantly induce mda-5 expression	–	–
COc1c(C)c2c(c(O)c1C/C=C(\C)CCC(=O)O)C(=O)OC2 [mycophenolic acid]	fail to significantly induce mda-5 expression	–	–
IFN-α	induce mda-5 expression; also recorded: increase mda-5 transcript levels, but the magnitude of this effect is less than with IFN-β or dsRNA	induce mda-5 expression	–
IFN-γ: interferon-γ	induce mda-5 expression; also recorded: increase mda-5 transcript levels, but the magnitude of this effect is less than with IFN-β or dsRNA	induce mda-5 expression	–
TNF-α	induce mda-5 expression; also recorded: comparable levels as seen with IFN-α	induce mda-5 expression	–
poly IC	induce mda-5 expression	induce mda-5 expression	mda-5 expression (steady-state mda-5 message level) (mda-5 expression [1]; listed as dsRNA): dramatically increases; responsiveness of mda-5 promoter construct / clones to inducer (mda-5 promoter): most responsive
